# Calls of active or inactive are those of the source.
# Key:
# [1] = Trypanosoma cruzi growth suppression in host cells – NIH3T3 host cells, beta-gal luminescence, confirmation (AID 2044); type: functional, cell-based;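 also: intracellular parasites grown in NIH/3T3 mouse fibroblasts as host cells; luminescent beta-galactosidase reporter signal from transgenic T. cruzi replicating inside host cells; inhibitors lower the luminescence signal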
# Melanocortin receptor 4 = Melanocortin receptor 4 (Homo sapiens, UniProt P32245); test: inhibitors of MC4R cAMP signaling – cell-based, TR-FRET, biased antagonists, dose response (AID 602298); type: functional;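 also: antagonist potency against agonist-stimulated cAMP production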
# Sequence of Melanocortin receptor 4 (P32245 whole entry): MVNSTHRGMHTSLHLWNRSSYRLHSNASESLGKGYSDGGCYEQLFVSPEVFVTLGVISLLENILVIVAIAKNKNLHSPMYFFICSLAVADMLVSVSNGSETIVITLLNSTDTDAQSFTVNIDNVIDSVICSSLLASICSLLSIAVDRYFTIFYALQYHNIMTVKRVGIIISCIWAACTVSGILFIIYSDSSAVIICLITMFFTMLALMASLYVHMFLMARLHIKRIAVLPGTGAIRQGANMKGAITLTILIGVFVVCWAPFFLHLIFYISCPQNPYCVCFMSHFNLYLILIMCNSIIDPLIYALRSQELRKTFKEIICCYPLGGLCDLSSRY
# Cytochrome P450 2D6 = Cytochrome P450 2D6 (Homo sapiens, UniProt P10635);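 also: CYP2D6 member of a cytochrome P450 panel assay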
# Sequence of Cytochrome P450 2D6 (P10635 whole entry): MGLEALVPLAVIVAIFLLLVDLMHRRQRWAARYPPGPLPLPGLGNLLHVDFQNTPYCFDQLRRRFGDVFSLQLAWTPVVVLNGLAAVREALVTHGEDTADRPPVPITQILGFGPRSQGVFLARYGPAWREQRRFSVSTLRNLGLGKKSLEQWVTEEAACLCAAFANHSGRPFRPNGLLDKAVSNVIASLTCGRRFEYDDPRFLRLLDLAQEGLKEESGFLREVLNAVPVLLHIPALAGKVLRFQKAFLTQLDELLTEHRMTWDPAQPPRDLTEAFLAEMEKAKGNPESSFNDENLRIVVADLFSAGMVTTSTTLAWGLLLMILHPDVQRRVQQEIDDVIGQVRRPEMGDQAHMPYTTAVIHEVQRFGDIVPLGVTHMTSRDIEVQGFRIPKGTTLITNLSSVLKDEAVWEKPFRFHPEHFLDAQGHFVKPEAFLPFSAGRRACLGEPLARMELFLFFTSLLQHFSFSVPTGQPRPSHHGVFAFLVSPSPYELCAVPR
# [2] = Luminescence Cell-Based Dose Retest to Confirm Inhibitors of Cancer Stem Cells. [Related pubchem assays (depositor defined):AID2717, AID2721]; type: functional; conditions: Homo sapiens
# [3] = NIH3T3 cell viability loss – ATP luminescence, mouse fibroblasts, counter-screen, dose response (AID 2010); type: functional, cell-based;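 also: cells exposed to compound for about 90 hours before reading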
# Streptokinase A = target: T1, Streptokinase A (Streptococcus pyogenes serotype M1, UniProt P10520); test: viability-normalized secreted streptokinase activity reduction – plasminogen activation absorbance, OD405, dose response (AID 1914); type: functional, Streptococcus pyogenes M1 GAS;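 also: secreted streptokinase activity via plasminogen activation per viability signal from cell pellet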
# T1 sequence (P10520 whole entry): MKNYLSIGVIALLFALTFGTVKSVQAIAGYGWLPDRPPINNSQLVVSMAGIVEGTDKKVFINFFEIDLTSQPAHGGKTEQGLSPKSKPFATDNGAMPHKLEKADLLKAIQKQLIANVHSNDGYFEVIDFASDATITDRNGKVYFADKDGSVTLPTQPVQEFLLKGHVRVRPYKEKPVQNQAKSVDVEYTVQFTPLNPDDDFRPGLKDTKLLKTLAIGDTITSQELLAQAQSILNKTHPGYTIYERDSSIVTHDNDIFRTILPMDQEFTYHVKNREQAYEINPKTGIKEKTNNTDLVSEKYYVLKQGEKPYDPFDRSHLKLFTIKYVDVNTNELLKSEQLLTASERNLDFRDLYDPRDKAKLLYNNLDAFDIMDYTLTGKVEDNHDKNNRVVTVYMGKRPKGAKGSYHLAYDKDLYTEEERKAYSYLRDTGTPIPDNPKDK
# Paired box protein Pax-8 = Paired box protein Pax-8 (Homo sapiens, UniProt Q06710); test: PAX8 transcriptional activity inhibition in RMG-I – RMG-I cells, luciferase, cherry-pick, dose response (AID 687027); type: functional, cell-based;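 also: luciferase reporter driven by Pax8 target thyroperoxidase promoter measured by SteadyGlo luminescence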
# Sequence of Paired box protein Pax-8 (Q06710 whole entry): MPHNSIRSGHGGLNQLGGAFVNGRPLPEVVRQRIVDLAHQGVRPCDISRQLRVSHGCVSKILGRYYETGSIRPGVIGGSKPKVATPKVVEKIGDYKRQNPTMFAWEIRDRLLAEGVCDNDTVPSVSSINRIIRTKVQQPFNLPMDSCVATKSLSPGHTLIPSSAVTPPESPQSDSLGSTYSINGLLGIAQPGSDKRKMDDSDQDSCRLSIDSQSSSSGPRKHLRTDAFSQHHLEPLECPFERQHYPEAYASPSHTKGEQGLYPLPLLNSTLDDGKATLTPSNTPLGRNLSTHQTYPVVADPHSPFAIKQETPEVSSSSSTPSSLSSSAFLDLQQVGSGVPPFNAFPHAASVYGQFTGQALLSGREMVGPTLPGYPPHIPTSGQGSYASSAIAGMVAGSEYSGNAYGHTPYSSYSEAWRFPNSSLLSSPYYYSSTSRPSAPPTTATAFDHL
# [4] = loss of viability in HepG2 cells – cell-based, CellTiter-Glo, cherry-picked, cytotoxicity control for Shn3 inhibitor project, dose response (AID 624134); type: functional
# [5] = cAMP pathway inhibition in counterscreen cell line – TR-FRET cAMP detection, counter-screen for MC4R biased antagonist project, dose response (AID 602305); type: functional, cell-based;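 also: U2OS cells stimulated with forskolin near its EC80 as the cAMP inducer; potency is for inhibition of forskolin-stimulated cAMP signaling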
# [6] = test system: Streptococcus sp. 'group A'; test: Streptococcus pyogenes SK(-)GAS viability under kanamycin – luminescence, BacTiterGlo, confirmation, counter-screen for streptokinase expression inhibitor project, dose response (AID 1900); type: functional, organism-based
# [7] = reduction of Shn3 3'UTR-driven luciferase in osteoblasts – cell-based, Clone20 osteoblasts, firefly luciferase, cherry-picked, dose response (AID 624132); type: functional;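 also: firefly luciferase luminescence from reporter carrying the Shn3 3'UTR in osteoblasts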
# Streptococcus = test: GAS UMAA2166 growth inhibition – luminescence, BacTiterGlo, counter-screen for streptokinase expression inhibitor project, dose response (AID 1915); type: functional, organism-based; conditions: read-out: EC50;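 also: potency for reduction of bacterial viability or growth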
# [8] = target: T2, Short transient receptor potential channel 4 (Mus musculus, UniProt Q9QUQ5); test: block of DAMGO-driven TRPC4 calcium entry – cell-based, HEK293 TRPC4/mu-opioid, Fluo-4 calcium, dose response (AID 434942); type: functional;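 also: potency of inhibitors blocking the TRPC4 calcium response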
# T2 sequence (Q9QUQ5 whole entry): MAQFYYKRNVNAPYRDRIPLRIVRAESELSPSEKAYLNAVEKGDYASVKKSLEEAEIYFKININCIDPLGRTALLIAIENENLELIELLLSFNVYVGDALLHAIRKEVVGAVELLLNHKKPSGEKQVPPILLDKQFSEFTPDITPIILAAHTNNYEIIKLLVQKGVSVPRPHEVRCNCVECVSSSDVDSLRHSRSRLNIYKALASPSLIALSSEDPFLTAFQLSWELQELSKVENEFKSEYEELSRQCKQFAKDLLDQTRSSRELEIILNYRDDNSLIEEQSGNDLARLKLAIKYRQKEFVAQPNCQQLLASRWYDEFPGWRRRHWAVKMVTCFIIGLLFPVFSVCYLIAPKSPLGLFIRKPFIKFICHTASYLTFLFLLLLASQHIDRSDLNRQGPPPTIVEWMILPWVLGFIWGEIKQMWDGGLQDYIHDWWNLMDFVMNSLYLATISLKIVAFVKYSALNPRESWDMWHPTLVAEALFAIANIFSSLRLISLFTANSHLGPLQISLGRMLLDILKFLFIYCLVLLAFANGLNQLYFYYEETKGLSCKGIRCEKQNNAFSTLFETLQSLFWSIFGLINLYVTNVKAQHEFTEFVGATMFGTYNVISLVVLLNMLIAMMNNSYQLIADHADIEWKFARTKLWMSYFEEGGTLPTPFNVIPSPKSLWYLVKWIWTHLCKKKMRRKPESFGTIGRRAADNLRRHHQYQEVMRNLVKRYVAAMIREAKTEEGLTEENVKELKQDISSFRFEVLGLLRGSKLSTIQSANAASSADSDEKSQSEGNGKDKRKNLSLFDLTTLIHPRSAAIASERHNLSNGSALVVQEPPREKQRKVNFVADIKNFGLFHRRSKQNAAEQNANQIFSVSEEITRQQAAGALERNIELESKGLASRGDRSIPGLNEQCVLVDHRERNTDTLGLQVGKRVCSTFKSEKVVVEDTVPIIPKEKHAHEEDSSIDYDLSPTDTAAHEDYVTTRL
# Cytochrome P450 2C9 = Cytochrome P450 2C9 (Homo sapiens, UniProt P11712)
# Sequence of Cytochrome P450 2C9 (P11712 whole entry): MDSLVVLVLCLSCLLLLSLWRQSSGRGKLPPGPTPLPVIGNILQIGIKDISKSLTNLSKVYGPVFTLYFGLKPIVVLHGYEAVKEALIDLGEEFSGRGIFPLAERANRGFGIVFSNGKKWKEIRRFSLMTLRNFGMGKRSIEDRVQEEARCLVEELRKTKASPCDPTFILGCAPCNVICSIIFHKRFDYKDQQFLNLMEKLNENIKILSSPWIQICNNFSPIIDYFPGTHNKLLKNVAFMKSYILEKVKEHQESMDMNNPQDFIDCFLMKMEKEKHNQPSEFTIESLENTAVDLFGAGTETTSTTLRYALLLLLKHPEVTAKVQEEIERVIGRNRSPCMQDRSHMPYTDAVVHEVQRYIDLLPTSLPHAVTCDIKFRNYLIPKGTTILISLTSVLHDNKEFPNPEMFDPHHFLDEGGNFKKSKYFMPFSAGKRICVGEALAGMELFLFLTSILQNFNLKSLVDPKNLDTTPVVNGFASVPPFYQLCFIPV
# H9c2 = test: cells; type: functional, cell-based; conditions: Rattus norvegicus, H9c2, Myocardium;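 also: confirmatory concentration-response retest of ultra-high-throughput screening hits for modulation of myocardial damage; cell death induced by hydrogen peroxide oxidative stress; compound pretreatment for 60 min then peroxide exposure for 2 h; potency is for protecting the cells against peroxide damage rather than for killing them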
# [9] = target: T2, Short transient receptor potential channel 4; test: calcium entry via TRPC4 opening agents – cell-based, HEK293 TRPC4/mu-opioid, Fluo-4 calcium, dose response (AID 434937); type: functional
# [10] = target: Luciferin 4-monooxygenase (Photinus pyralis, UniProt P08659); test: inhibition of purified Photinus pyralis luciferase – biochemical, luminescence, dose response (AID 1891)
# Sequence of Luciferin 4-monooxygenase (P08659 whole entry): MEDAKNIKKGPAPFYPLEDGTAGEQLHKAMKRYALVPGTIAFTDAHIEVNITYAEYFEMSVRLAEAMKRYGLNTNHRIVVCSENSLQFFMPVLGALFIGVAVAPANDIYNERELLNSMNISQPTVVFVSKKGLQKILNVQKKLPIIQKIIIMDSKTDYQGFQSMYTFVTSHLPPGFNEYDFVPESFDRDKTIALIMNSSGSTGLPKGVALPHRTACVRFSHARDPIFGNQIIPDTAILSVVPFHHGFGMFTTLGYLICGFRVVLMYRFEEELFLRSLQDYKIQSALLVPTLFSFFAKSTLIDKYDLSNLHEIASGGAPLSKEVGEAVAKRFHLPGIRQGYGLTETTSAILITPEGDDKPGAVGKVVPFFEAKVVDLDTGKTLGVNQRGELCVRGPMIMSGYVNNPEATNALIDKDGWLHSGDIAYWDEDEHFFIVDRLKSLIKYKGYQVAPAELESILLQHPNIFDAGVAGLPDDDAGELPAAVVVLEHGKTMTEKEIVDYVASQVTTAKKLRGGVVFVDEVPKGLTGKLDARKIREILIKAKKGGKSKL
# [11] = Luminescence Cell-Based Dose Confirmation HTS to Identify Inhibitors of Platelet Dense Granule Release. [Related pubchem assays: 1663 (Primary HTS), 1678 (Summary of Project)]; type: functional
# Cytochrome P450 2C19 = Cytochrome P450 2C19 (Homo sapiens, UniProt P33261); test: Cytochrome panel assay with activity outcomes. Panel member name: p450-cyp2c19 Compounds with AC50 equal or less than 10 uM are considered active; type: functional; conditions: read-out: AC50
# Sequence of Cytochrome P450 2C19 (P33261 whole entry): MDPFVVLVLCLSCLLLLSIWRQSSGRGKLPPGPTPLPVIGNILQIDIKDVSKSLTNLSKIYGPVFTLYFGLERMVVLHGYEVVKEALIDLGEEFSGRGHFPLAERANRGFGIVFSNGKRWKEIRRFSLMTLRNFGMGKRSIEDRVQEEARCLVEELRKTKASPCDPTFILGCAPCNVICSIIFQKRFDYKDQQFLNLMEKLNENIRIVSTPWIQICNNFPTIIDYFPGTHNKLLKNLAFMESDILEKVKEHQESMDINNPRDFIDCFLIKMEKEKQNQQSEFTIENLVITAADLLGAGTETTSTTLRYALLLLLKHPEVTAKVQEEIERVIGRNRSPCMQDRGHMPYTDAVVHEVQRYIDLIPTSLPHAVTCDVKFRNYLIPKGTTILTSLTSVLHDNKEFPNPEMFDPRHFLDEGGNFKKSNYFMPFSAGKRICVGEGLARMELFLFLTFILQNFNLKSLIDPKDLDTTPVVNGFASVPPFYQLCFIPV
# Cytochrome P450 3A4 = Cytochrome P450 3A4 (Homo sapiens, UniProt P08684);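 also: CYP3A4 tested as one member of a cytochrome P450 panel screen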
# Sequence of Cytochrome P450 3A4 (P08684 whole entry): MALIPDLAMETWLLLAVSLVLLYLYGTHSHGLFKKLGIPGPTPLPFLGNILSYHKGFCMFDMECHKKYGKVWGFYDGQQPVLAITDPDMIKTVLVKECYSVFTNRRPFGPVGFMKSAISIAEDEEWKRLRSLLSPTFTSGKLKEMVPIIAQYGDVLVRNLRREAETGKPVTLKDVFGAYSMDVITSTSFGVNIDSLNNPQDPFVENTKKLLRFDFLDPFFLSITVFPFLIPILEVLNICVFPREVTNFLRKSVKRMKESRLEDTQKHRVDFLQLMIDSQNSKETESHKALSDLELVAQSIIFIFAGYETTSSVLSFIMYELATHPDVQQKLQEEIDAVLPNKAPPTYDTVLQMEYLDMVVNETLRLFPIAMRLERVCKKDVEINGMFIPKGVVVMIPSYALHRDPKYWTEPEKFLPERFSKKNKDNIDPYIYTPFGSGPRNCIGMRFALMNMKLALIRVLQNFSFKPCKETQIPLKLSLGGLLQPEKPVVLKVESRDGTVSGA
# Vero = test: cells; type: functional; conditions: Chlorocebus sabaeus
# [12] = target: T3, Corticotropin-releasing factor receptor 2/Corticotropin-releasing factor-binding protein (Homo sapiens, UniProt P24387+Q13324); test: Dose Response confirmation of uHTS hits for small molecule antagonists of the CRF-binding protein and CRF-R2 receptor complex.; type: functional; conditions: read-out: IC50_Mean
# T3 sequence (Q13324 whole entry): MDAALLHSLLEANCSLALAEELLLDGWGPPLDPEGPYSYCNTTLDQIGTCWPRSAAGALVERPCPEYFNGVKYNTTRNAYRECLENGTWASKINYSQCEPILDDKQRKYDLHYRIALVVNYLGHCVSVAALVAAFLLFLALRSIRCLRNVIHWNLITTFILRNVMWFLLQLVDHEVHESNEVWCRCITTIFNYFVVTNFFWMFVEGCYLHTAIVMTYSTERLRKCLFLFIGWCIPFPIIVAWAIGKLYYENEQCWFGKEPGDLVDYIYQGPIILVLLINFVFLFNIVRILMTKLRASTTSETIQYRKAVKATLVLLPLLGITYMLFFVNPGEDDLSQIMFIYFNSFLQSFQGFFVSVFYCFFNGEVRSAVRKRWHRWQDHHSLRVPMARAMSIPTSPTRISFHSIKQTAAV
# T3 sequence (P24387 whole entry): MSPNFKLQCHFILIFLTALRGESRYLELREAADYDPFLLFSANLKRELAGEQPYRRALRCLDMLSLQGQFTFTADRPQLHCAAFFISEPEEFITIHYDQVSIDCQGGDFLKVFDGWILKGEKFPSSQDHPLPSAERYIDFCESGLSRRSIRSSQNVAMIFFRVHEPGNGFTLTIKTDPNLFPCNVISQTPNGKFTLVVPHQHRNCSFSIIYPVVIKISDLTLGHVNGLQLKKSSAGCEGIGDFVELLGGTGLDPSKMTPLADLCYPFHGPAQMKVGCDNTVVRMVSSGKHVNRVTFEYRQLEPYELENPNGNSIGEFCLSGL
# [13] = target: T3, Corticotropin-releasing factor receptor 2/Corticotropin-releasing factor-binding protein; test: activators of CRF receptor 2 with binding protein – uHTS hits, confirmation (AID 602473); type: functional; conditions: read-out: EC50_Mean
# H4 = test: Luminescence Cell-Based Dose Response HTS to Identify Activators of 5'UTR Stem-Loop Driven Prion Protein mRNA Translation in H4 Neuroglioblastoma Cells. [Related pubchem assays: 1829 (Project Summary), 1814 (Primary HTS)]; type: functional; conditions: Homo sapiens
# [14] = Luminescence Cell-Based Dose Response HTS to Identify Activators of Luciferase Translation or Activity in H4 […] Cells. [Related pubchem assays: 1829 (Project Summary), 1814 (Primary HTS)]; type: functional
# [15] = Luminescence Cell-Based Dose Confirmation HTS to Identify Activators of 5'UTR Stem-Loop Driven Alpha-Synuclein mRNA Translation in H4 Neuroglioblastoma Cells. [Related pubchem assays: 1829 (Project Summary), 1814 (Primary HTS)]; type: functional
compound,measurement,setting,value
Cc1cc(O)c(C(C)C)cc1C1(c2cc(C(C)C)c(O)cc2C)OC(=O)c2ccccc21,EC50,[1],2.11 µM (active)
same,IC50,Melanocortin receptor 4,> 64.6 µM (inactive)
same,AC50,Cytochrome P450 2D6,3.98 µM (inconclusive)
same,AC50,[2],1.71 µM (active)
same,EC50,[3],> 60 µM (not active)
same,EC50,Streptokinase A,> 150 µM (not active)
same,AC50,Paired box protein Pax-8,8.19 µM (active)
same,AC50,[4],18.8 µM (active)
same,IC50,[5],> 64.6 µM (inactive)
same,EC50,[6],1.24 µM (active)
same,AC50,[7],9.45 µM (active)
same,EC50,Streptococcus,3.87 µM (active)
CC(=O)Nc1ccc(S(=O)(=O)Nc2nc3ccc(C)cc3s2)cc1,EC50,[8],3.76 µM (active)
CCn1c(-c2ccccc2Cl)nn(CC(=O)Nc2ccccc2OC)c1=S,AC50,Cytochrome P450 2C9,inconclusive
NC(=O)c1cccc(Nc2nc(C(N)CCc3ccccc3)cs2)n1 (stereo unspecified),IC50,H9c2,18.3 µM (active)
COc1cc(OC)c2ccc(=O)oc2c1C(CC(=O)N1CCN(c2ccccc2)CC1)c1ccc2c(c1)OCO2 (stereo unspecified),IC50,H9c2,> 79 µM (inactive)
COc1ccc(C)cc1N(C(=O)c1snc(C(N)=O)c1N)C(C(=O)NC1CCCCC1)c1ccc(C)o1 (stereo unspecified),EC50,[8],0.211 µM (active)
Brc1cc2c(cc1COc1ccc(-c3nn[nH]n3)cc1)OCO2,EC50,[8],5.31 µM (active)
CC(=O)c1c(C)nn(CC(=O)NC2CCCN(Cc3ccc(CC(C)C)cc3)C2)c1C (stereo unspecified),EC50,[9],1.19 µM (active)
same,EC50,[10],> 112 µM (not active)
same,EC50,[11],> 112 µM (not active)
COc1ccc(C(=O)c2ccccc2)cc1Br,AC50,Cytochrome P450 2D6,22.4 µM (inconclusive)
same,AC50,Cytochrome P450 2C9,inconclusive
CC(=O)C1=C(O)C(=O)N(Cc2ccccc2)C1c1ccc([N+](=O)[O-])cc1 (stereo unspecified),EC50,[8],1.19 µM (active)
Cc1sc2ncnc(NCC(c3ccco3)N(C)C)c2c1C (stereo unspecified),EC50,[9],0.841 µM (active)
FC(F)(F)c1ccccc1-c1nccc(N2CCNCC2)n1,AC50,Cytochrome P450 2C9,inconclusive
Cn1c(S)nnc1-c1cccc2ccccc12,EC50,[9],0.841 µM (active)
N#Cc1nc(-c2ccc(F)cc2)oc1N1CCCC1,AC50,Cytochrome P450 2C19,14.1 µM (inconclusive)
same,AC50,Cytochrome P450 3A4,14.1 µM (inconclusive)
same,AC50,Cytochrome P450 2C9,inconclusive
O=C(NCC(=O)N(Cc1ccccc1)C(C(=O)NC1CCCCC1)c1ccco1)c1ccco1 (stereo unspecified),IC50,H9c2,42.2 µM (inactive)
COc1ccc(C2=NOC(COc3ccc4c(C)cc(=O)oc4c3)C2)c(OC)c1 (stereo unspecified),CC50,Vero,7.23 µM (active)
O=C(NCc1ccccc1)C1=C[C@H](c2ccccc2)C[C@H](OCc2ccc(CO)cc2)O1,EC50,[9],1.06 µM (active)
same,IC50,[12],> 47.1 µM (inactive)
same,EC50,[13],> 53 µM (inactive)
CCN(CC)S(=O)(=O)c1ccc(Cl)c(C(=O)OC2CC(C)OC2=O)c1 (stereo unspecified),IC50,Melanocortin receptor 4,> 64.6 µM (inactive)
same,IC50,[5],> 64.6 µM (inactive)
Cc1nnsc1SCC(=O)O,AC50,Cytochrome P450 2C9,inconclusive
COc1cc(C(=O)NC(=S)NNC(=O)c2ccc3c(c2)OCO3)cc(OC)c1OC,CC50,Vero,20.2 µM (active)
COc1ccc2cc(C(=O)NCCc3ccccc3)[nH]c2c1,EC50,H4,99.5 µM (active)
same,EC50,[14],48 µM (active)
same,EC50,[15],43.2 µM (active)
COC(=O)c1c(NC(=O)COC(=O)c2ccc(Cl)cc2[N+](=O)[O-])sc2c1CCCCC2,IC50,Melanocortin receptor 4,> 64.6 µM (inactive)
same,IC50,[5],> 64.6 µM (inactive)
COc1ccc2sc(-c3ccc(S(C)(=O)=O)cc3)c(-c3ccc(C(N)=O)cc3)c2c1,IC50,Melanocortin receptor 4,11.5 µM (inactive)
same,IC50,[5],25.1 µM (inactive)

# From ChEMBL document CHEMBL1201862, “PubChem BioAssay data set” (2004)
